Reference: US5089623A, “Certain imidate insecticides” (Imperial Chemical Industries Plc, priority 1990, dated 1992)

How the values were obtained:
Assay type in all cases: in vivo
[1] = test system: Aster Leafhopper [Macrosteles fascifrens (Stal)]; assay: Aster leafhopper test (LH); conditions: adults/nymphs, 48 hours, percent in solution
[2] = test system: Housefly [Musca domestica]; assay: Housefly insecticidal test (HF); conditions: per 25 female houseflies, 48 hours
[3] = test system: Cabbage Looper [Trichoplusia ni (Hubner)]; assay: Cabbage looper test (CL); conditions: second-instar larvae, 3-5 days, percent in solution
[4] = test system: Beet Armyworm (Spodoptera exigua); assay: Beet armyworm test (BAW)
Method: (§1) The compounds in Tables 1 and 2 above were tested for insecticidal activity using the following testing procedures. LC50 values, based on the results of these tests and calculated according to dosage-mortality curves, are expressed in Table 3.
Beet Armyworm (Spodoptera exigua)
Test compounds were diluted in a 50-50 acetone-water solution. Young leaves of sugar beets (Beta vulgaris) were immersed in the test solutions for 2-3 seconds and placed on a wire screen to dry. The dried leaves were placed in petri dishes containing a moistened filter paper and infested with five second-instar beet armyworm larvae. The dishes were placed in a high humidity chamber. Mortality of the larvae was recorded five days later. Test concentrations ranged from 0.1% downward. The LC-50 values are expressed below in Table 3 under the heading "BAW" in terms of percent of the test compound in solution.

[5] = test system: Tobacco Budworm [Heliothis virescens (Fabricius)]; assay: Tobacco budworm contact test (TBW-C); conditions: second-instar larvae, 5 days, percent in solution
Method: as §1
Tobacco Budworm [Heliothis virescens (Fabricius)]
(a) Contact: Test compounds were diluted in a 50-50 acetonewater solution. Cotton (Gossypium sp.) cotyledons were immersed in the test solutions for 2-3 seconds and placed on a wire screen to dry. The dried leaves were placed in petri dishes containing a moistened piece of filter paper and infested with 5 second-instar tobacco budworm larvae. The dishes were placed in a high humidity chamber for 5 days, and percent mortality of the larvae recorded. Test concentrations ranged from 0.1% downward. The LC-50 values are expressed below in Table 3 under the heading "TBW-C" in terms of percent of the test compound in the solution.

[6] = test system: Tobacco Budworm [Heliothis virescens (Fabricius)] eggs; assay: Tobacco budworm egg test (TBW-E); conditions: percent in solution
[7] = test system: Maize weevil [Sitophilus Zeamais (Motschulsky)]; assay: Maize weevil test (MW); conditions: adult weevils, treated corn seeds, 48 hours, percent in solution
Outline: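 Adult weevils (10) were placed with four corn seeds that had been dipped 2-3 s in compound dissolved in 50:50 acetone:water, then dried, and held at about 25° C. Mortality was scored at 48 h. LC50 was taken from dosage-mortality curves and expressed as percent compound in solution, from a 0.01% top concentration.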

[8] = second-instar larvae, five days, percent in solution

SMILES | LC50 LH [1] [%] | LC50 HF [2] [µg] | LC50 CL [3] [%] | LC50 BAW [4, 8] [%] | LC50 TBW C [5] [%] | LC50 TBW E [6] [%] | LC50 MW [7] [%] | LC50 BAW ([4]; 120 h) [%]
CC(C)C(=Nc1ccc(Cl)cc1)OCc1cccc(Oc2ccccc2)c1 [Compound 2] | 0.0003 | 4.5 | 0.006 | 0.01 | 0.0009 | 0.04 | – | –
Clc1ccc(N=C(OCc2cccc(Oc3ccccc3)c2)C(Cl)Cl)c(Cl)c1 [Compound 4] | > 0.05 | 100 | 0.007 | 0.04 | 0.05 | > 0.1 | – | –
CC(C)C(=Nc1ccc(Cl)c(Cl)c1)OCc1cccc(Oc2ccccc2)c1 [Compound 14] | 0.001 | 40 | 0.004 | 0.005 | – | – | 0.01 | –
Clc1ccccc1N=C(OCc1cccc(Oc2ccccc2)c1)C(Cl)Cl [Compound 34] | – | > 100 | 0.015 | 0.015 | 0.01 | > 0.1 | – | –
Fc1ccc(N=C(OCc2cccc(Oc3ccccc3)c2)C2CC2)cc1 [Compound 45] | > 0.05 | 30 | 0.03 | – | 0.01 | 0.08 | – | 0.1
CC(C)C(=Nc1cccc(F)c1)OCc1cccc(Oc2ccccc2)c1 [Compound 47] | 0.0003 | 10 | 0.002 | 0.002 | 0.002 | 0.06 | – | –
CC(C)C(=Nc1ccc(F)cc1F)OCc1cccc(Oc2ccccc2)c1 [Compound 52] | 0.001 | 8 | 0.0025 | 0.01 | 0.004 | > 0.05 | – | –
CC(C)C(=Nc1ccc(F)cc1)OCc1ccc(F)c(Oc2ccccc2)c1 [Compound 53] | – | 2 | 0.0005 | 0.003 | 0.0025 | 0.02 | – | –
CC(C)C(=Nc1ccc(F)c(F)c1)OCc1cccc(Oc2ccccc2)c1 [Compound 54] | 0.00015 | 3.5 | 0.0003 | 0.004 | 0.001 | 0.017 | – | –
FC(F)(F)c1ccc(N=C(OCc2cccc(Oc3ccccc3)c2)C2CC2)c(Cl)c1 [Compound 65] | > 0.05 | > 100 | < 0.01 | – | 0.1 | > 0.1 | – | > 0.1
CC(C)C(=Nc1cccc(C(F)(F)F)c1)OCc1cccc(Oc2ccccc2)c1 [Compound 67] | 0.00027 | 15 | 0.001 | 0.006 | – | 0.01 | – | –
Cc1c(Cl)cccc1N=C(OCc1cccc(Oc2ccccc2)c1)C(Cl)Cl [Compound 97] | – | 10 | 0.002 | 0.01 | 0.004 | 0.04 | – | –
CCC(C)C(=Nc1ccc(F)c(Cl)c1)OCc1cccc(Oc2ccccc2)c1 (stereo not shown) [Compound 122] | > 0.05 | 37 | 0.0007 | 0.01 | – | 0.05 | – | –
Cc1ccc(N=C(OCc2cccc(Oc3ccccc3)c2)C(Cl)Cl)cc1 [Compound 139] | – | 4.2 | 0.015 | 0.007 | 0.005 | 0.05 | – | –
O=[N+]([O-])c1ccc(N=C(OCc2cccc(Oc3ccccc3)c2)C(Cl)Cl)cc1 [Compound 173] | – | 18 | 0.02 | > 0.1 | > 0.1 | > 0.1 | – | –
CC(C)C(=Nc1ccc(Br)c(F)c1)OCc1ccc(F)c(Oc2ccc(F)cc2)c1 [Compound 282] | – | 16 | 0.00007 | 0.0025 | 0.0007 | 0.02 | 0.008 | –
CC(C)C(=Nc1ccc2c(c1)OC(C)(C)O2)OCc1ccc(F)c(Oc2ccc(F)cc2)c1 [Compound 283] | – | 23 | 0.00009 | 0.0013 | 0.0009 | 0.016 | > 0.01 | –
CC(C)C(=Nc1ccc(F)c(I)c1)OCc1ccc(F)c(Oc2ccc(Cl)cc2)c1 [Compound 326] | – | 25 | 0.00015 | 0.004 | 0.0005 | 0.03 | – | –
CC(C)C(=Nc1ccc(F)c(Cl)c1F)OCc1cccc(Oc2ccccc2)c1 [Compound 332] | – | 7 | 0.00045 | 0.0012 | 0.00075 | 0.015 | – | –
CC(C)C(=Nc1ccc(Br)cc1)OCc1ccc(F)c(Oc2ccc(F)cc2)c1 [Compound 333] | – | 15 | 0.00024 | > 0.1 | 0.00075 | 0.025 | > 0.01 | –
CC(C)C(=Nc1ccc(I)cc1)OCc1ccc(F)c(Oc2ccc(F)cc2)c1 [Compound 335] | – | 34 | 0.00027 | > 0.1 | 0.00025 | 0.05 | > 0.01 | –
CC(C)C(=Nc1ccc(F)c(Cl)c1)OCc1cc(Oc2ccc(F)cc2)c(F)cc1F [Compound 343] | – | 40 | 0.00027 | > 0.1 | 0.00025 | > 0.1 | > 0.01 | –
CC(C)C(=Nc1ccc2c(c1)OC(F)(F)O2)OCc1cccc(Oc2ccc(Cl)cc2)c1 [Compound 450] | – | 72 | 0.00016 | 0.005 | 0.0001 | 0.015 | 0.01 | –
CC(C)C(=Nc1ccc(F)c(Cl)c1)OCc1cccc(Oc2ccc(Cl)cc2)n1 [Compound 463] | 0.0003 | 8 | 0.00009 | 0.0024 | – | 0.0075 | 0.01 | –
CC(C)C(=Nc1ccc(F)c(Cl)c1F)OCc1cccc(Oc2ccc(Cl)cc2)n1 [Compound 500] | – | 16 | 0.00009 | 0.002 | 0.00075 | 0.02 | – | –
